Data published in US20070048356A1, “Antimicrobial treatment of nonwoven materials for infection control” (priority 2005, published 2007).

Legend:
Type in all cases: cell-based
S. aureus (ATCC 6538) = assay: Dynamic Shake Flask (based on ASTM E 2149-01) on treated nonwoven
[1] = system: P. aeruginosa (ATCC 9027); assay: as above
Experimental: (§1) The test organisms are grown in 25 mL appropriate broth medium for about 24±2 hours at 37±2° C. in a wrist action shaker. The bacterial culture is then transferred by placing about 100 μL aliquot in 25 mL of broth and grown again for about 24±2 hours at 37±2° C. The organisms are then centrifuged and washed three times with phosphate buffered saline (PBS). The organisms are then suspended in PBS to obtain an inoculum of approximately 1×10^8 CFU/mL.
(§2) The test articles and control swatches are exposed to an ultraviolet light source for about 5-10 minutes per side before testing to assure that the swatches are sanitized prior to inoculation with the bacteria. The test materials are brought into contact with a known population of test bacteria from the inoculum for a specified period of time. A sample is then plated at the end of the exposure time to enumerate the surviving bacteria. The log10 reduction form the control material and the original population is calculated using the following formula: Log10 Control*−Log10 CFU/swatch Test Article=Log10 Reduction
[…] This buffer solution contains a chemical to de-activate or “neutralize” the antimicrobial agent to (a) stop the active agent from killing the organisms after the designated time period and (b) to prevent artifacts that may arise from exposing the microorganisms to the antimicrobial in solution rather than solely on the substrate. Because each chemical used as an antimicrobial agent is a little different (ie: cationic, nonionic, metal, etc), a different neutralizer was likely added in each case to shut off the antimicrobial at the desired end point of the experiment. […] The neutralizer employed may be selected from a list that is commonly used in the field. […] Testing Mat.

A. Niger (ATCC 16404) = assay: as above; details: Table 14, Spunbond
Experimental: as §1, §2
[…] This buffer solution contains a chemical to de-activate or “neutralize” the antimicrobial agent to (a) stop the active agent from killing the organisms after the designated time period and (b) to prevent artifacts that may arise from exposing the microorganisms to the antimicrobial in solution rather than solely on the substrate. Because each chemical used as an antimicrobial agent is a little different (ie: cationic, nonionic, metal, etc), a different neutralizer was likely added in each case to shut off the antimicrobial at the desired end point of the experiment. […] The neutralizer employed may be selected from a list that is commonly used in the field. These include, non-ionic degtergents, Bisulphate, lecithin, leethen broth, thiosulfate, thioglycolate, and pH buffers, Method similar to those described in American Society for Testing and Materials, Standard Practices for Evaluating Inactivators of Antimicrobial Agents Used in Disinfectant, Sanitizer, Antiseptic, or Preserved Products, Amer. Soc. Testing Mat. E 1054-91 (1991) can be used.

S. aureus = assay: Zone of inhibition test to measure leaching; details: AATCC 147 and ASTM E 2149-01 protocols
Experimental: First, according to the American Association of Textile Chemists and Colorists (AATCC)-147 test protocol, in a dry-leaching test, the antimicrobial treated material is placed in an agar plate seeded with a known amount of organism population on the plate surface. The plate is then incubated for about 18-24 hours at about 35° C. or 37° C.±2° C. Afterwards, the agar plate is assessed. Any leaching of the antimicrobial from the treated material would result in a zone of inhibited microbial growth. […] The piece of material was allowed to sit for 24 hours in solution and then the supernatant of the solution was extracted. […] About 100 micro liters (μL) of supernatant is added to a 8 mm well cut into a seeded agar plate and allow to dry. […] In summary, these protocols are performed by incubating an inoculated plate containing either the actual treated material or a solution that has been exposed to the treated material. This plate is then analyzed for zones of inhibition of organism growth to detect if the antimicrobial has leached off of the material or into the solution.

C. Albicans (ATCC 10231) = assay: Dynamic Shake Flask (based on ASTM E 2149-01) on treated nonwoven; details: Table 15, SMS

Polyhexamethylene biguanide [PHMB]
Dynamic Shake Flask Log10 Reduction (S. aureus (ATCC 6538); Table 12, Meltblown, contact time 1 min): 4 Log10
Dynamic Shake Flask Log10 Reduction (S. aureus (ATCC 6538); Table 12, Meltblown, contact time 5 min): 4 Log10
Dynamic Shake Flask Log10 Reduction (S. aureus (ATCC 6538); Table 12, Meltblown, contact time 15 min): 4 Log10
Dynamic Shake Flask Log10 Reduction (S. aureus (ATCC 6538); Table 12, SMS, contact time 1 min): 4 Log10
Dynamic Shake Flask Log10 Reduction (S. aureus (ATCC 6538); Table 12, SMS, contact time 5 min): 4 Log10
Dynamic Shake Flask Log10 Reduction (S. aureus (ATCC 6538); Table 12, SMS, contact time 15 min): 4 Log10
Dynamic Shake Flask Log10 Reduction (S. aureus (ATCC 6538); Table 12, Spunbond, contact time 1 min): 4 Log10
Dynamic Shake Flask Log10 Reduction (S. aureus (ATCC 6538); Table 12, Spunbond, contact time 5 min): 4 Log10
Dynamic Shake Flask Log10 Reduction (S. aureus (ATCC 6538); Table 12, Spunbond, contact time 15 min): 4 Log10
Dynamic Shake Flask Log10 Reduction (S. aureus (ATCC 6538); Table 16, Spunbond substrate, contact time 1 min, listed as 0.5% PHMB): 2.31 Log10
Dynamic Shake Flask Log10 Reduction (S. aureus (ATCC 6538); Table 16, Spunbond substrate, contact time 1 min, listed as 1.0% PHMB): 4.00 Log10
Dynamic Shake Flask Log10 Reduction (S. aureus (ATCC 6538); Table 16, Spunbond substrate, contact time 5 min): 4.00 Log10
Dynamic Shake Flask Log10 Reduction (S. aureus (ATCC 6538); Table 16, Spunbond substrate, contact time 15 min): 4.00 Log10
Dynamic Shake Flask Log10 Reduction (S. aureus (ATCC 6538); Table 17, Spunbond substrate, contact time 1 min): 0.18 Log10
Dynamic Shake Flask Log10 Reduction (S. aureus (ATCC 6538); Table 17, Spunbond substrate, contact time 5 min): 0.33 Log10
Dynamic Shake Flask Log10 Reduction (S. aureus (ATCC 6538); Table 17, Spunbond substrate, contact time 15 min): 0.58 Log10
Dynamic Shake Flask Log10 Reduction (S. aureus (ATCC 6538); Table 19, SMS substrate, contact time 1 min): 0.18 Log10
Dynamic Shake Flask Log10 Reduction (S. aureus (ATCC 6538); Table 19, SMS substrate, contact time 5 min): 0.33 Log10
Dynamic Shake Flask Log10 Reduction (S. aureus (ATCC 6538); Table 19, SMS substrate, contact time 15 min): 0.58 Log10
Dynamic Shake Flask Log10 Reduction ([1]; Table 13, Meltblown, contact time 1 min): 4 Log10
Dynamic Shake Flask Log10 Reduction ([1]; Table 13, Meltblown, contact time 5 min): 4 Log10
Dynamic Shake Flask Log10 Reduction ([1]; Table 13, Meltblown, contact time 15 min): 4 Log10
Dynamic Shake Flask Log10 Reduction ([1]; Table 13, SMS, contact time 1 min): 4 Log10
Dynamic Shake Flask Log10 Reduction ([1]; Table 13, SMS, contact time 5 min): 4 Log10
Dynamic Shake Flask Log10 Reduction ([1]; Table 13, SMS, contact time 15 min): 4 Log10
Dynamic Shake Flask Log10 Reduction ([1]; Table 13, Spunbond, contact time 1 min): 4 Log10
Dynamic Shake Flask Log10 Reduction ([1]; Table 13, Spunbond, contact time 5 min): 4 Log10
Dynamic Shake Flask Log10 Reduction ([1]; Table 13, Spunbond, contact time 15 min): 4 Log10
Dynamic Shake Flask Log10 Reduction ([1]; Table 18, Spunbond substrate, contact time 1 min): 0.07 Log10
Dynamic Shake Flask Log10 Reduction ([1]; Table 18, Spunbond substrate, contact time 5 min): 0.12 Log10
Dynamic Shake Flask Log10 Reduction ([1]; Table 18, Spunbond substrate, contact time 15 min): 0.34 Log10
Dynamic Shake Flask Log10 Reduction ([1]; Table 20, SMS substrate, contact time 1 min): 0.07 Log10
Dynamic Shake Flask Log10 Reduction ([1]; Table 20, SMS substrate, contact time 5 min): 0.12 Log10
Dynamic Shake Flask Log10 Reduction ([1]; Table 20, SMS substrate, contact time 15 min): 0.34 Log10
Dynamic Shake Flask Log10 Reduction (A. Niger (ATCC 16404); contact time 1 min): 4.00 Log10
Dynamic Shake Flask Log10 Reduction (A. Niger (ATCC 16404); contact time 5 min): 4.00 Log10
Dynamic Shake Flask Log10 Reduction (A. Niger (ATCC 16404); contact time 15 min): 4.00 Log10
zones of inhibition / leaching from the treated substrate (S. aureus): does not leach
Dynamic Shake Flask Log10 Reduction (C. Albicans (ATCC 10231); contact time 1 min): 1.28 Log10
Dynamic Shake Flask Log10 Reduction (C. Albicans (ATCC 10231); contact time 5 min): 2.38 Log10
Dynamic Shake Flask Log10 Reduction (C. Albicans (ATCC 10231); contact time 15 min): 3.48 Log10
